Experimental data published in ChEMBL document CHEMBL1139814, “Conformationally restricted homotryptamines. Part 4: Heterocyclic and naphthyl analogs of a potent selective serotonin reuptake inhibitor” (Bioorg Med Chem Lett, 2007).

Columns and labels:
[1] = molecular target: Sodium-dependent serotonin transporter (Homo sapiens, UniProt P31645); assay: Inhibition of human SERT
[2] = molecular target: T1, Sodium-dependent noradrenaline transporter (Homo sapiens, UniProt P23975); assay: Inhibition of NET
[3] = molecular target: T1, Sodium-dependent noradrenaline transporter; assay: Inhibition of NET at 1 uM
[4] = molecular target: T2, Sodium-dependent dopamine transporter (Homo sapiens, UniProt Q01959); assay: Inhibition of DAT at 1 uM
[5] = molecular target: T2, Sodium-dependent dopamine transporter; assay: Inhibition of DAT

T1 sequence (P23975 whole entry): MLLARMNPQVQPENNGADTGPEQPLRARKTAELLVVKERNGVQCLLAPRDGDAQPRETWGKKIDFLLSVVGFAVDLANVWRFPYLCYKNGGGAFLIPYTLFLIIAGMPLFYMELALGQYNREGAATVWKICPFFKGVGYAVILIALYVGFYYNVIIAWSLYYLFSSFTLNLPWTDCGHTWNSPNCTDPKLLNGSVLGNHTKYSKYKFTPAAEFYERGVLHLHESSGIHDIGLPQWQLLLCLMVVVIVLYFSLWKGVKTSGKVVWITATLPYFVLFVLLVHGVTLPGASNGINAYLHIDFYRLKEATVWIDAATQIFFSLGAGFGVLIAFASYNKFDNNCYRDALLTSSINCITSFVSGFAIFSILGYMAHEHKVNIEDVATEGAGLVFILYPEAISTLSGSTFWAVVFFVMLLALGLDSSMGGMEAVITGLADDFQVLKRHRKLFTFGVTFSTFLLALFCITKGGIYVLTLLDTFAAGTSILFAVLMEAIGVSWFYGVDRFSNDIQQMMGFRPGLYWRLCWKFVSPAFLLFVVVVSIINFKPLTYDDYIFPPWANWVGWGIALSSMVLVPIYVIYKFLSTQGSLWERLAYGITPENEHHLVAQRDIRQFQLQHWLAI
Sequence of Sodium-dependent serotonin transporter (P31645 whole entry): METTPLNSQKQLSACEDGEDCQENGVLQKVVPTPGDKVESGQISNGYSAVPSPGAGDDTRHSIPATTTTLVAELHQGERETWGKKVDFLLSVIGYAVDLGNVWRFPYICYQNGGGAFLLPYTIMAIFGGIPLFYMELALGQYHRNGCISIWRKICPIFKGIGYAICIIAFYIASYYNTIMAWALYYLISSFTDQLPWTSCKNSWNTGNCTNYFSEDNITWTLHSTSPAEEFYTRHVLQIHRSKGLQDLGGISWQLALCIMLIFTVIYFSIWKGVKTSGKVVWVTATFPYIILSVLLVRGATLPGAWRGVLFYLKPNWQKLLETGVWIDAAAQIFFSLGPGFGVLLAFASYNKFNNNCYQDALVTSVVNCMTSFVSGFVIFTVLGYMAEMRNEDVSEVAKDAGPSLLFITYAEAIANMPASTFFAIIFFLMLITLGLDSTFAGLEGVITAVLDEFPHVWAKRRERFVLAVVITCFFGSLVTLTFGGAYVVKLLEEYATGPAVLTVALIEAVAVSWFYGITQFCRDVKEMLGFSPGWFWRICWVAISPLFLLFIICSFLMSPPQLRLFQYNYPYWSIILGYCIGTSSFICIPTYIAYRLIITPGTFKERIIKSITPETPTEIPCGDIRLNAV
T2 sequence (Q01959 whole entry): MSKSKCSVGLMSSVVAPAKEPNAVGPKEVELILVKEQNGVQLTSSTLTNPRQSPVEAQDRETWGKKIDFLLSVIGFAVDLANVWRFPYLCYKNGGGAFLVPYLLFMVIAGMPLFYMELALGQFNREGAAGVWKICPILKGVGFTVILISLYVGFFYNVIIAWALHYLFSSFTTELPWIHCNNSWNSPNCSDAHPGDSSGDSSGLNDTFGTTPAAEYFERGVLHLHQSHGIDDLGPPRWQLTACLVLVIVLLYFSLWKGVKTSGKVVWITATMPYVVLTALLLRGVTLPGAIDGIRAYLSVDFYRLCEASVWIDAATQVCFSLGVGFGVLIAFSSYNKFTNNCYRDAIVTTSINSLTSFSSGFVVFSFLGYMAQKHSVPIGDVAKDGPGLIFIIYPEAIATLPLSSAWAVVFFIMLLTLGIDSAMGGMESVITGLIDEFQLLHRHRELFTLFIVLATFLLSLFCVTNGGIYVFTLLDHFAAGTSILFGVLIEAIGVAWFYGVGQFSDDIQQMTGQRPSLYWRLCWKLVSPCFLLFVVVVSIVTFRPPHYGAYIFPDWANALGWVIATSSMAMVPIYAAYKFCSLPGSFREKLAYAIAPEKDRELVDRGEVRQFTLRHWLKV

Row | SMILES | IC50 [1] [µM] | IC50 [2] [µM] | inhibition [3] [%] | inhibition [4] [%] | IC50 [5] [µM]
1 | CN(C)C[C@H]1C[C@@H]1c1c[nH]c2ccc(C#N)cc12 | 0.00048 | – | – | – | –
2 | CNCC1CC1c1cccc2cc(C#N)ccc12 (stereo unspecified) | 0.017 | – | – | – | –
3 | CN(C)CC1CC1c1cnc2ccccc2c1 (stereo unspecified) | 0.13 | – | – | – | –
4 | CCNCC1CC1c1cccc2cc(C#N)ccc12 (stereo unspecified) | 0.037 | – | – | – | –
5 | CCN(CC)CC1CC1c1cccc2cc(C#N)ccc12 (stereo unspecified) | 0.067 | – | – | – | –
6 | CN(C)CC1CC1c1ccc2cc(C#N)ccc2c1 (stereo unspecified) | 0.013 | 0.56 | 69 | 41 | 1.1
7 | CN(Cc1ccccc1)CC1CC1c1cccc2cc(C#N)ccc12 (stereo unspecified) | 0.016 | – | – | – | –
8 | CN(C)CC1CC1c1cccc2c(C#N)cccc12 (stereo unspecified) | 0.048 | 39 | 25 | 9.5 | 12
9 | CNCC1CC1c1ccc2ccccc2c1 (stereo unspecified) | 0.052 | – | – | – | –
10 | CCN(C)CC1CC1c1ccc2ccccc2c1 (stereo unspecified) | 0.31 | – | – | – | –
11 | CCN(CC)CC1CC1c1ccc2ccccc2c1 (stereo unspecified) | 0.55 | – | – | – | –
12 | CCN(C)CC1CC1c1cccc2ccccc12 (stereo unspecified) | 0.058 | – | – | – | –
13 | N#Cc1ccc2c(C3CC3CN3CCCC3)cccc2c1 (stereo unspecified) | 0.051 | – | – | – | –
14 | CCN(CC)CC1CC1c1cccc2ccccc12 (stereo unspecified) | 0.12 | – | – | – | –
15 | CNCC1CC1c1cccc2ccccc12 (stereo unspecified) | 0.089 | – | – | – | –
16 | CN(C)CC1CC1c1cccc2cc(C#N)ccc12 (stereo unspecified) | 0.0041 | 19 | 20 | 16 | 8.7
17 | CN(C)CC1CC1c1ccc2cc(C#N)c(C#N)cc2c1 (stereo unspecified) | 0.0059 | – | 82 | 80 | –
18 | CN(C)CC1CC1c1cncc2ccccc12 (stereo unspecified) | > 1 | – | – | – | –
19 | CN(C)CC1CC1c1c[nH]c2ccc(C#N)cc12 (racemic) | 0.0011 | – | – | – | –

Row | SMILES | IC50 [1] [µM] | IC50 [2] [µM] | inhibition [3] [%] | inhibition [4] [%] | IC50 [5] [µM]
20 | CN(C)C[C@H]1C[C@@H]1c1c[nH]c2ccc(F)cc12 (racemic) | 0.0041 | – | – | – | –
21 | CN(C)CC1CC1c1ccc2ccc(C#N)cc2c1 (racemic) | 0.083 | 0.71 | 68 | 83 | 0.26
22 | CN(C)C[C@H]1C[C@@H]1c1c[nH]c2ccccc12 (racemic) | 0.099 | – | – | – | –
23 | CN(C)CC1CC1c1c[nH]c2ncccc12 (racemic) | 0.41 | – | – | – | –
24 | CN(C)CC1CC1c1n[nH]c2ccc(C#N)cc12 (racemic) | 0.071 | > 100 | -4.9 | 0 | 44
25 | CN(C)CC1CC1c1cnc2ccccn12 (racemic) | > 1 | – | – | – | –
26 | CN(C)CC1CC1c1ccc2ccccc2c1 (single isomer, unassigned; (+)) [listing 1 of 2 here] | 0.0086 | 8.7 | – | – | 2.4
27 | CN(C)CC1CC1c1cccc2ccccc12 (single isomer, unassigned; (+)) [listing 1 of 2 here] | 0.018 | 68 | – | – | 33
28 | CN(C)CC1CC1c1ccc2ccccc2c1 (single isomer, unassigned; (+)) [listing 2 of 2 here] | – | – | 18 | 31 | –
29 | CN(C)CC1CC1c1cccc2ccccc12 (single isomer, unassigned; (+)) [listing 2 of 2 here] | – | – | 2.3 | 12 | –
30 | CN(C)CC1CC1c1ccc2ccccc2c1 (single isomer, unassigned; (-)) | 0.14 | – | – | – | –
31 | CN(C)CC1CC1c1cccc2ccccc12 (single isomer, unassigned; (-)) | 0.17 | – | – | – | –
32 | CN(C)CC1CC1c1csc2ccccc12 (stereo in doubt; 6) | 0.025 | – | – | – | –
33 | CN(C)CC1CC1c1cccc2ccccc12 (stereo in doubt; 9b) | 0.015 | – | – | – | –
34 | CN(C)CC1CC1c1ccc2ccccc2c1 (stereo in doubt; 10b) | 0.0086 | – | – | – | –
35 | CN(C)CC1CC1c1csc2ccccc12 (stereo in doubt; (+)-6) [listing 1 of 2 here] | 0.055 | – | – | – | –
36 | CN(C)CC1CC1c1csc2ccccc12 (stereo in doubt; (+)-6) [listing 2 of 2 here] | – | – | 13 | 24 | –
37 | CN(C)CC1CC1c1csc2ccccc12 (stereo in doubt; (-)-6) | 0.15 | – | – | – | –
